Reference: US20100267784A1, “NOVEL 4,5-DIHYDROISOXAZOLES WITH ESTROGENIC ACTIVITY” (priority 2007, published 2010)
Several values for one entry are separate records, joined by “and”; a condition that tells them apart may be missing. Identical values can stand only once.

What was measured:
[1] = target: ERβ (Homo sapiens, UniProt Q92731); assay: ERβ reporter (luciferase) transactivation assay in transfected HEK293 cells; format: cell-based; set-up: expressed in transfected cells; host or cells: HEK293; conditions: for ERβ receptor activation relative to 10 nM E2 corresponding 100: sample concentration 10 μM, 24 hours, mean of at least three independent transfections; for activation at 10 µM: HEK293, 24 h, read-out: ERβ receptor activation relative to 10 nM E2 corresponding 100, sample concentration 10 μM, mean of at least three independent transfections
Chain of ERβ (Q92731 whole entry): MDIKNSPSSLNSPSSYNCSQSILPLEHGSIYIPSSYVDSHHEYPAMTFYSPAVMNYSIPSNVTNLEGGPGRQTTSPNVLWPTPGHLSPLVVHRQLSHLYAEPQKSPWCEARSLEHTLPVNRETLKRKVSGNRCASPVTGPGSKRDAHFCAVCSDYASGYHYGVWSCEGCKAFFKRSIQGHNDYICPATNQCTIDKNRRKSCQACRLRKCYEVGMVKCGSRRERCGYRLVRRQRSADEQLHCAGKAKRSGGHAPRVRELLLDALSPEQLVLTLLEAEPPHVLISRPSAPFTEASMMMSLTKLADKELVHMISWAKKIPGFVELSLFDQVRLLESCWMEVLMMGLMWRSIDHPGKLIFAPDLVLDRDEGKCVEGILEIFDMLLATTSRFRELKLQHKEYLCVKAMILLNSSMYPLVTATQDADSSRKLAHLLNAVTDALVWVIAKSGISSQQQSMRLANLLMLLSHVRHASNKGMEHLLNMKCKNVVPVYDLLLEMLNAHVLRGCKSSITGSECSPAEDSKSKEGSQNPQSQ
Procedure: (§1) Determination of the Estrogen Activity of the Compounds: Cell Culture, Transfection and Reporter Assays
(§2) All other reagents were of reagent grade from Sigma or Fluka. One day before transfection, HEK293 cells were seeded in 48-well plates (70×10^3 cells per well) in phenol-free Dulbecco's modified Eagle medium supplemented with 5% delipidated fetal bovine serum (Sigma) and antibiotics. After a medium change, the cells were transfected for 4 hours with 5 ng ERα or ERβ expression vector, 75 ng reporter plasmid pERE2TATA-LUC and 20 ng control plasmid pCMVβ by the calcium phosphate method. After transfection, the cells received fresh medium containing either vehicle (0.1% v/v) or test compound (10 μM). After 24 hours, the cells were washed, lysed and luciferase and β-galactosidase activities were determined from 20 μl of lysates with the Victor^2TM reader (PerkinElmer Wallac, Turku, Finland). […] The data are means ±SEM of at least three independent transfections.

[2] = target: T1, ERα (Homo sapiens, UniProt P03372); assay: ERα reporter (luciferase) transactivation assay in transfected HEK293 cells; format: cell-based; set-up: expressed in transfected cells; host or cells: HEK293; conditions: sample concentration 10 μM, 24 hours, mean of at least three independent transfections
T1 sequence (P03372 1-595): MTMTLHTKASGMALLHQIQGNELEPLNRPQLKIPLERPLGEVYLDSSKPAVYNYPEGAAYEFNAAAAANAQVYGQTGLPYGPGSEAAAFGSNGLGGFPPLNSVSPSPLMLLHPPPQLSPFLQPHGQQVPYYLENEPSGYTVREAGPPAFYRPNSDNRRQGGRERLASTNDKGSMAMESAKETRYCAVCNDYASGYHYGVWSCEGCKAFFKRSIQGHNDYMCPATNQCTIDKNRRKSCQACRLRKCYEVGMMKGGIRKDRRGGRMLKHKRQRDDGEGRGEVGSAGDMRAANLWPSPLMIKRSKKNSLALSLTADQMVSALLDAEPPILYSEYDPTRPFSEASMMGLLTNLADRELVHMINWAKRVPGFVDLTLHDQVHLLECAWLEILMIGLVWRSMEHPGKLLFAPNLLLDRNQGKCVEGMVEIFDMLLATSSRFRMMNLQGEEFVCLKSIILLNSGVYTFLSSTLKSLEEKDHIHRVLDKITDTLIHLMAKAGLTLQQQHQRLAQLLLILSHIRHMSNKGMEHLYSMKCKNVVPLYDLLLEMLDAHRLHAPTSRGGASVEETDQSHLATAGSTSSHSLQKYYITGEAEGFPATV
Procedure: as §1, §2

SMILES	ERβ receptor activation relative to 10 nM E2 corresponding 100 [1] [%]	ERα receptor activation relative to 10 nM E2 corresponding 100 [2]	activation at 10 µM [1] [%]	melting point [°C]
Oc1ccc(CCCC2=NOC(Cc3ccc(O)cc3)C2)cc1 (single isomer, unassigned) [101b, 5-(4-Hydroxy-benzyl)-3-[3-(4-hydroxy-phenyl)-propyl]-4,5-dihydro-isoxazole]	10.6	13.6%		
Oc1ccc(CC2CC(CCCc3ccc(O)c(O)c3)=NO2)cc1 (single isomer, unassigned) [103a, 3-[3-(3,4-Dihydroxy-phenyl)-propyl]-5-(4-hydroxy-benzyl)-4,5-dihydro-isoxazole]	−1.1	1.7%		
Oc1ccc(CC2CC(CCCc3ccc(O)c(O)c3)=NO2)cc1 (single isomer, unassigned) [103b, 3-[3-(3,4-Dihydroxy-phenyl)-propyl]-5-(4-hydroxy-benzyl)-4,5-dihydro-isoxazole]	−0.7	1.4%		
c1ccc(CC2CC(c3ccccc3)=NO2)cc1 (single isomer, unassigned) [107a, 5-Benzyl-3-phenyl-4,5-dihydroisoxazole]		−1.0%	6.6	
c1ccc(CC2CC(c3ccccc3)=NO2)cc1 (single isomer, unassigned) [107b, 5-Benzyl-3-phenyl-4,5-dihydroisoxazole]	12.8	47.2%		
c1ccc(CCC2=NOC(c3ccccc3)C2)cc1 (single isomer, unassigned) [110a, 3-Phenethyl-5-phenyl-4,5-dihydroisoxazole]		16.4%	9.8	
c1ccc(CCC2=NOC(c3ccccc3)C2)cc1 (single isomer, unassigned) [110b, 3-Phenethyl-5-phenyl-4,5-dihydroisoxazole]	8.1	11.2%		
c1ccc(CCC2CC(c3ccccc3)=NO2)cc1 (single isomer, unassigned) [111a, 5-Phenethyl-3-phenyl-4,5-dihydroisoxazole]	8.5	22.8%		
c1ccc(CC2=NOC(c3ccccc3)C2)cc1 (stereo not shown) [112ab, 3-Benzyl-5-phenyl-4,5-dihydroisoxazole]		19.6%	34.4	
CC1(c2ccccc2)CC(CCCc2ccccc2)=NO1 (stereo not shown) [115ab, 5-Methyl-5-phenyl-3-(3-phenyl-propyl)-4,5-dihydro-isoxazole]		69.5%	15.5	
COc1ccccc1C1=NOC(Cc2ccccc2)C1 (stereo not shown) [compound 6, 5-Benzyl-3-(2-methoxyphenyl)-4,5-dihydroisoxazole]				81 to 82
COc1ccc(C2=NOC(Cc3ccccc3)C2)cc1 (stereo not shown) [compound 12, 5-Benzyl-3-(4-methoxyphenyl)-4,5-dihydroisoxazole]				99.6 to 100.3
COc1ccc(CC2CC(c3ccc(OC)cc3)=NO2)cc1 (stereo not shown) [compound 15, 5-(4-Methoxybenzyl)-3-(4-methoxyphenyl)-4,5-dihydroisoxazole]				135.8 to 137.7
COc1ccc(C2=NOC(Cc3ccc(F)cc3)C2)cc1 (stereo not shown) [compound 18, 5-(4-Fluorobenzyl)-3-(4-methoxyphenyl)-4,5-dihydroisoxazole]				116.7 to 118.7
COc1ccc(C2=NOC(Cc3c(F)c(F)c(F)c(F)c3F)C2)cc1 (stereo not shown) [compound 19, 3-(4-methoxyphenyl)-5-pentafluorobenzyl-4,5-dihydroisoxazole]				123 to 124
Clc1ccc(C2=NOC(Cc3ccccc3)C2)cc1 (stereo not shown) [compound 33, 5-Benzyl-3-(4-Chlorophenyl)-4,5-dihydroisoxazole]				128.2 to 129.4

Continued, values first:

ERβ receptor activation relative to 10 nM E2 corresponding 100 [1] [%]	ERα receptor activation relative to 10 nM E2 corresponding 100 [2]	activation at 10 µM [1] [%]	melting point [°C]	SMILES
	4.5%	4.2		Oc1ccccc1CCC1=NOC(CCc2ccccc2)C1 (single isomer, unassigned) [104a, 3[2-(2-Hydroxy-phenyl)-ethyl]-5-phenethyl-4,5-dihydro-isoxazole]
2.6	21.8%			Oc1ccccc1CCC1=NOC(CCc2ccccc2)C1 (single isomer, unassigned) [104b, 3[2-(2-Hydroxy-phenyl)-ethyl]-5-phenethyl-4,5-dihydro-isoxazole]
	8.3%	2.6		Oc1cccc(CCC2=NOC(CCc3ccccc3)C2)c1 (single isomer, unassigned) [105a, 3-[2-(3-Hydroxy-phenyl)-ethyl]-5-phenethyl-4,5-dihydro-isoxazole]
3.6	3.0%			Oc1cccc(CCC2=NOC(CCc3ccccc3)C2)c1 (single isomer, unassigned) [105b, 3-[2-(3-Hydroxy-phenyl)-ethyl]-5-phenethyl-4,5-dihydro-isoxazole]
15.4	62.8%			Oc1ccc(CCC2=NOC(CCc3ccccc3)C2)cc1 (single isomer, unassigned) [106a, 3-[2-(4-Hydroxy-phenyl)-ethyl]-5-phenethyl-4,5-dihydro-isoxazole]
0.8	15.8%			Oc1ccc(CCC2=NOC(CCc3ccccc3)C2)cc1 (single isomer, unassigned) [106b, 3-[2-(4-Hydroxy-phenyl)-ethyl]-5-phenethyl-4,5-dihydro-isoxazole]
	68.4%	1.1		c1ccc(CCC2=NOC(Cc3ccccc3)C2)cc1 (single isomer, unassigned) [109a, 5-Benzyl-3-phenethyl-4,5-dihydroisoxazole]
1.3	38.2%			c1ccc(CCC2=NOC(Cc3ccccc3)C2)cc1 (single isomer, unassigned) [109b, 5-Benzyl-3-phenethyl-4,5-dihydroisoxazole]
−6.0	1.1%			c1ccc(CCC2CC(c3ccccc3)=NO2)cc1 (single isomer, unassigned) [111b, 5-Phenethyl-3-phenyl-4,5-dihydroisoxazole]
13.6	31.3%			c1ccc(CCCC2=NOC(Cc3ccccc3)C2)cc1 (single isomer, unassigned) [114a, 5-Benzyl-3-(3-phenyl-propyl)-4,5-dihydro-isoxazole]
5.1	28.1%			c1ccc(CCCC2=NOC(Cc3ccccc3)C2)cc1 (single isomer, unassigned) [114b, 5-Benzyl-3-(3-phenyl-propyl)-4,5-dihydro-isoxazole]
0.2	3.4%			c1ccc(CCC2=NOC(CCc3ccccc3)C2)cc1 (single isomer, unassigned) [116a, 3,5-Di-phenethyl-4,5-dihydroisoxazole]
−0.4	43.9%			c1ccc(CCC2=NOC(CCc3ccccc3)C2)cc1 (single isomer, unassigned) [116b, 3,5-Di-phenethyl-4,5-dihydroisoxazole]
	19.5% and 19.7%	10.6		Fc1cccc(CC2=NOC(CCc3ccccc3)C2)c1 (stereo not shown) [69ab, 3-(3-Fluorobenzyl)-5-phenethyl-4,5-dihydroisoxazole]
	21.6%	6.6		Oc1cccc(C2CC(Cc3ccccc3)=NO2)c1 (stereo not shown) [82ab, 3-Benzyl-5-(3-hydroxy-phenyl)-4,5-dihydro-isoxazole]
	37.0%	1.2		c1ccc(CCC2CC(Cc3ccccc3)=NO2)cc1 (stereo not shown) [108ab, 3-Benzyl-5-phenethyl-4,5-dihydroisoxazole]
